Data reported in patent publication US20030191144A1, “Compounds, compositions and methods for modulating beta-amyloid production” (Active Pass Pharmaceuticals, Inc., priority 2001, published 2003).

Tests used:
[1] = tested on: Aβ42 production and/or release from SM-4 cells; assay: Aβ42 ELISA of culture media from SM-4 cells; assay type: cell-based; settings: 16 hrs, p<0.001
Procedure: Cell Lines and Pharmacological Treatments. 293 EBNA cells (InVitrogen, Carlsbad, Calif.) stably transfected with Swedish mutant β-Amyloid Precursor Protein -695 (SM4 cells) were routinely maintained in DMEM supplemented with sodium pyruvate (1 mM) and 10% fetal bovine serum. Cells were seeded into poly-D-Lysine (SIGMA) coated 6-well plates at a density of 5-7×10^5 cells per well. Subsequently, the cells were rinsed in 1 ml of PBS and treated with 10-500 μM of pirinixic acid in serum-free/phenol red-free DMEM for 16 hours.
(§1) Aβ Detection and Standardization. After the pharmacological treatment, the exposure media was collected and supplemented with 10% sample treatment buffer (40 mM sodium phosphate (pH 7.4), 40 mM triethanolamine, 0.1% Triton X-100, 200 mM NaCl, 2 mM EGTA, 0.1% Sodium azide), and assayed for either Aβ40 or Aβ42 by a calorimetric ELISA as per the manufacturer's protocol (Biosource International Inc, California). The cells were lysed in 0.1% Triton X-100 in PBS supplemented with 5 μM propridium iodide (Molecular Probes, Eugene, Oreg.) and incubated at 37° C. for 30 minutes prior to measuring fluorescence. Aβ40 and Aβ42 were standardized against propridium iodide fluorescence as a measure of total cell number. […]
as §1, with “After” for “Aβ Detection and Standardization. After”
After the pharmacological treatment, the exposure media was collected and supplemented with 10% sample treatment buffer (40 mM sodium phosphate (pH 7.4), 40 mM triethanolamine, 0.1% Triton X-100, 200 mM NaCl, 2 mM EGTA, 0.1% Sodium azide), and assayed for either Aβ40 or Aβ42 by a colorimetric ELISA as per the manufacturer's protocol (Biosource International Inc, California). The cells were lysed in 0.1% Triton X-100 in PBS supplemented with 5 μM propridium iodide (Molecular Probes, Eugene, Oreg.) and incubated at 37° C. for 30 minutes prior to measuring fluorescence. Aβ40 and Aβ42 were standardized against propridium iodide fluorescence as a measure of total cell number.

[2] = tested on: Aβ40 production and/or release from SM-4 cells; assay: Aβ40 ELISA of culture media from SM-4 cells; assay type: cell-based; settings: 16 hrs
Procedure: Cell Lines and Pharmacological Treatments. 293 EBNA cells (InVitrogen, Carlsbad, Calif.) stably transfected with Swedish mutant β-Amyloid Precursor Protein -695 (SM4 cells) were routinely maintained in DMEM supplemented with sodium pyruvate (1 mM) and 10% fetal bovine serum. Cells were seeded into poly-D-Lysine (SIGMA) coated 6-well plates at a density of 5-7×10^5 cells per well. Subsequently, the cells were rinsed in 1 ml of PBS and treated with 10-500 μM of pirinixic acid in serum-free/phenol red-free DMEM for 16 hours. Aβ Detection and Standardization. After the pharmacological treatment, the exposure media was collected and supplemented with 10% sample treatment buffer (40 mM sodium phosphate (pH 7.4), 40 mM triethanolamine, 0.1% Triton X-100, 200 mM NaCl, 2 mM EGTA, 0.1% Sodium azide), and assayed for either Aβ40 or Aβ42 by a calorimetric ELISA as per the manufacturer's protocol (Biosource International Inc, California). The cells were lysed in 0.1% Triton X-100 in PBS supplemented with 5 μM propridium iodide (Molecular Probes, Eugene, Oreg.) and incubated at 37° C. for 30 minutes prior to measuring fluorescence. Aβ40 and Aβ42 were standardized against propridium iodide fluorescence as a measure of total cell number. 293 EBNA cells (InVitrogen, Carlsbad, Calif.) stably transfected with Swedish mutant β-Amyloid Precursor Protein -695 (SM4 cells) were routinely maintained in DMEM supplemented with sodium pyruvate (1 mM) and 10% fetal bovine serum. […] The cells were lysed in 0.1% Triton X-100 in PBS supplemented with 5 μM propridium iodide (Molecular Probes, Eugene, Oreg.) and incubated at 37° C. for 30 minutes prior to measuring fluorescence. Aβ40 and Aβ42 were standardized against propridium iodide fluorescence as a measure of total cell number. […] The cells were lysed in 0.1% Triton X-100 in PBS supplemented with 5 μM propridium iodide (Molecular Probes, Eugene, Oreg.) and incubated at 37° C. for 30 minutes prior to measuring fluorescence. Aβ40 and Aβ42 were standardized against propridium iodide fluorescence as a measure of total cell number.

SMILES | inhibition of Aβ42 secretion ([1]; 300 μM) [%] | effect on Aβ40 ([2]; 50-300 μM) | inhibition of Aβ42 secretion ([1]; 100 μM) [%] | effect on Aβ40 ([2]; 5-100 μM)
Cc1cccc(N(C)c2cc(Cl)nc(SCC(=O)O)n2)c1C [Compound 1] | 66 | without altering Aβ40 | – | –
CCN(c1cc(Cl)nc(SCC(=O)O)n1)c1cccc(C)c1C [Compound 2, {4-chloro-6-[(2,3-dimethylphenyl)ethylamino]pyrimidin-2-yl-sulfanyl}acetic Acid] | – | – | 80 | without altering Aβ40
